Test results as given in patent US20080118458A1, “Agent containing L-Carnitine or L-Carnitine derivatives and at least one other specific substance” (priority 2005, published 2008).

How the values were obtained:
[1] = tested on: Keratinocyte Growth Factor (KGF); experiment: Release of KGF into the medium of organotypical cell cultures (ELISA); type: cell-based; details: 72 h; individual substance 0.01%; untreated = 100
Description: (§1) Hepatocyte Growth Factor (HGF) and Keratinocyte Growth Factor (KGF) are important growth factors which are released from the dermal papillae in order to control the proliferation of the hair keratinocytes. A potentially growth-promoting and hair-strengthening substance can be assumed from an increase in the factors released into the medium. The release of HGF and KGF can be quantified with the help of commercially available ELISA kits. For this, organotypical cell cultures are incubated over 72 h with the substance mixture and the concentration of the growth factors in the medium is determined in the described manner.

[2] = tested on: Hepatocyte Growth Factor (HGF); experiment: Release of HGF into the medium of organotypical cell cultures (ELISA); type: cell-based; details: 72 h; individual substance 0.01%; untreated = 100
Description: as §1

Row | SMILES | KGF mean [%] (standard deviation) [1] | HGF mean [%] (standard deviation) [2]
1 | C[N+](C)(C)C[C@H](O)CC(=O)[O-].O=C(O)C(O)C(O)C(=O)O [Carnitine tartrate, L-carnitine tartrate] | 108 (8) % | 100 (42) %
2 | NCCS(=O)(=O)O [Taurine, 2-aminoethanesulfonic acid] | 71 (7) % | 120 (21) %
